Measurements published in publication PMC12749626, “Expediting hit-to-lead progression in drug discovery through reaction prediction and multi-dimensional optimization” (Nature Communications, 2025).

Experiments:
A[…]. ENZ. = A[…]. ENZ. (Homo sapiens, UniProt P12821); settings: 10 uM; n=2
ACETYLCHOLINESTERASE = ACETYLCHOLINESTERASE (Homo sapiens, UniProt P22303); settings: 10 uM; n=2
[…]. M1 = […]. M1 (Homo sapiens, UniProt P11229); settings: 10 uM; n=2
DOPAMINE D2 REC. (short) = DOPAMINE D2 REC. (short) (Homo sapiens, UniProt P14416); settings: 10 uM; n=2
ADENOSINE A1 REC. = ADENOSINE A1 REC. (Homo sapiens, UniProt P30542); settings: 10 uM; n=2
GSK-3A = GSK-3A (Homo sapiens, UniProt P49840); settings: 10 uM; n=2
5HT1A = 5HT1A (Homo sapiens, UniProt P08908); settings: 10 uM; n=2
PHOSPHODIESTERASE 3B = PHOSPHODIESTERASE 3B (Homo sapiens, UniProt Q13370); settings: 10 uM; n=2
α2A-ADRENOCEPTOR = α2A-ADRENOCEPTOR (Homo sapiens, UniProt P08913); settings: 10 uM; n=2
CDK2 = CDK2 (Homo sapiens, UniProt P24941); settings: 10 uM; n=2
κ OPIOID REC. = κ OPIOID REC. (Homo sapiens, UniProt P41145); settings: 10 uM; n=2
HISTAMINE H2 REC. = HISTAMINE H2 REC. (Homo sapiens, UniProt P25021); settings: 10 uM; n=2
5HT2A = 5HT2A (Homo sapiens, UniProt P28223); settings: 10 uM; n=2
[1] = test system: closely related brain hydrolases; settings: activity-based protein profiling, mouse brain, 10 µM
human MAGL = target: T1, human MAGL (Homo sapiens, UniProt Q99685); settings: = pIC50 - cLogP
T1 sequence (Q99685 1-303): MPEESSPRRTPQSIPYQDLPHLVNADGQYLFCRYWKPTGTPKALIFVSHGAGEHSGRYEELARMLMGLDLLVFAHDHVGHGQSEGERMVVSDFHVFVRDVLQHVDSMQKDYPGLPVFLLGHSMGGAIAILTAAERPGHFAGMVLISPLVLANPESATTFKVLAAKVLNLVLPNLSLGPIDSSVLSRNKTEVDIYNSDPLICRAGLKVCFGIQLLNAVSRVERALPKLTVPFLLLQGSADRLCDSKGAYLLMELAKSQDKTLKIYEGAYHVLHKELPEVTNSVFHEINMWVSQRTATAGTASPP

C[…]. CB1 = C[…]. CB1 (Homo sapiens, UniProt P21554); settings: 10 uM; n=2
PHOSPHODIESTERASE 4D2 = PHOSPHODIESTERASE 4D2 (Homo sapiens, UniProt Q08499); settings: 10 uM; n=2
CHOLECYSTOKININ 1 REC. = CHOLECYSTOKININ 1 REC. (Homo sapiens, UniProt P32238); settings: 10 uM; n=2
HIV-1 PROTEASE = HIV-1 PROTEASE (Human immunodeficiency virus type 1 group M subtype B, UniProt P04585); settings: 10 uM; n=2
ESTROGEN REC. α = ESTROGEN REC. α (Homo sapiens, UniProt P03372); settings: 10 uM; n=2
5HT3 = 5HT3 (Homo sapiens, UniProt P46098); settings: 10 uM; n=2
[…]. M2 = […]. M2 (Homo sapiens, UniProt P08172); settings: 10 uM; n=2
μ OPIOID REC. = μ OPIOID REC. (Homo sapiens, UniProt P35372); settings: 10 uM; n=2
DOPAMINE D1 REC. = DOPAMINE D1 REC. (Homo sapiens, UniProt P21728); settings: 10 uM; n=2
α1A-ADRENOCEPTOR = α1A-ADRENOCEPTOR (Homo sapiens, UniProt P35348); settings: 10 uM; n=2
GSK-3B = GSK-3B (Homo sapiens, UniProt P49841); settings: 10 uM; n=2
GLUC[…]. = GLUC[…]. (Homo sapiens, UniProt P04150); settings: 10 uM; n=2
ANDROGEN REC. = ANDROGEN REC. (Homo sapiens, UniProt P10275); settings: 10 uM; n=2
SEROTONIN TRANSPORTER = SEROTONIN TRANSPORTER (Homo sapiens, UniProt P31645); settings: 10 uM; n=2
ABL1 = ABL1 (Homo sapiens, UniProt P00519); settings: 10 uM; n=2
ZAP70 = ZAP70 (Homo sapiens, UniProt P43403); settings: 10 uM; n=2
HISTAMINE H1 REC. = HISTAMINE H1 REC. (Homo sapiens, UniProt P35367); settings: 10 uM; n=2
CYCLO OXYGENASE 2 = CYCLO OXYGENASE 2 (Homo sapiens, UniProt P35354); settings: 10 uM; n=2
ADENOSINE A3 REC. = ADENOSINE A3 REC. (Homo sapiens, UniProt P0DMS8); settings: 10 uM; n=2
ANGIOTENSIN II REC. 1 = ANGIOTENSIN II REC. 1 (Homo sapiens, UniProt P30556); settings: 10 uM; n=2
PPARγ = PPARγ (Homo sapiens, UniProt P37231); settings: 10 uM; n=2
5HT2B = 5HT2B (Homo sapiens, UniProt P41595); settings: 10 uM; n=2

Sequence of ADENOSINE A1 REC. (P30542 whole entry): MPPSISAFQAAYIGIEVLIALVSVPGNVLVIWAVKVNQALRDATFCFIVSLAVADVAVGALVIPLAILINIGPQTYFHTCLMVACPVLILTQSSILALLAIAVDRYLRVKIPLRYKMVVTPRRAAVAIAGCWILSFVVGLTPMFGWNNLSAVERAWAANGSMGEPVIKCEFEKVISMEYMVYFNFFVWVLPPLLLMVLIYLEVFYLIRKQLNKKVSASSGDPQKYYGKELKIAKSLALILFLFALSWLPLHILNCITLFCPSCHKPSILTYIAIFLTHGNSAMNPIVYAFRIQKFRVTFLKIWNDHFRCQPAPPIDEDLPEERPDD
Sequence of UniProt Q13370 (Q13370 whole entry): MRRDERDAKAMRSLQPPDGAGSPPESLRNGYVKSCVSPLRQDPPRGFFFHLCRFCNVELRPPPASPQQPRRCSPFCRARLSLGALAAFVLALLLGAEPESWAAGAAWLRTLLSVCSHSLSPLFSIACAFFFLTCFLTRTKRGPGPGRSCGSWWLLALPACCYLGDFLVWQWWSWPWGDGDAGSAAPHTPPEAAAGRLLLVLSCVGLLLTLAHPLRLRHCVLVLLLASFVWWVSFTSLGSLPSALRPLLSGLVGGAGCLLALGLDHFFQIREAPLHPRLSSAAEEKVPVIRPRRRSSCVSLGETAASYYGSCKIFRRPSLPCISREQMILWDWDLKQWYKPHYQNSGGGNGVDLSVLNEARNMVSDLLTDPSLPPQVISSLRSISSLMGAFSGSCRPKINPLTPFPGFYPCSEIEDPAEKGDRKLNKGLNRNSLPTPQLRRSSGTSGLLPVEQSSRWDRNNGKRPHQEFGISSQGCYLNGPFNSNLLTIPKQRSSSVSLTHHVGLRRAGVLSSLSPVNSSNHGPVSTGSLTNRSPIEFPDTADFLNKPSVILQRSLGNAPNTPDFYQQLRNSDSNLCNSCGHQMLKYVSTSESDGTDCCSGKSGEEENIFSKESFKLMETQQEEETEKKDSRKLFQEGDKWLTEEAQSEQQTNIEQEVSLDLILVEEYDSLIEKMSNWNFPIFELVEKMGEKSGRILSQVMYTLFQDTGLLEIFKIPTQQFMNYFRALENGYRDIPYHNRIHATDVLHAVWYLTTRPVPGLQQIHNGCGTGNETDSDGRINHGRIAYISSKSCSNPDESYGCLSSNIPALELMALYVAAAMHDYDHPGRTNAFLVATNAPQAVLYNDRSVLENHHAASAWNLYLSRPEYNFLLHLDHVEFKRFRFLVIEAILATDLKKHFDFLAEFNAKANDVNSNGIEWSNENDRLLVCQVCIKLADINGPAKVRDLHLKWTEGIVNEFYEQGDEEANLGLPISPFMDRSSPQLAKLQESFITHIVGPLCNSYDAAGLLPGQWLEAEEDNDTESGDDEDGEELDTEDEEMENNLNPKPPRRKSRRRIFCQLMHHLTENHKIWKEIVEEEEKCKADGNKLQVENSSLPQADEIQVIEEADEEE
Sequence of GSK-3B (P49841 whole entry): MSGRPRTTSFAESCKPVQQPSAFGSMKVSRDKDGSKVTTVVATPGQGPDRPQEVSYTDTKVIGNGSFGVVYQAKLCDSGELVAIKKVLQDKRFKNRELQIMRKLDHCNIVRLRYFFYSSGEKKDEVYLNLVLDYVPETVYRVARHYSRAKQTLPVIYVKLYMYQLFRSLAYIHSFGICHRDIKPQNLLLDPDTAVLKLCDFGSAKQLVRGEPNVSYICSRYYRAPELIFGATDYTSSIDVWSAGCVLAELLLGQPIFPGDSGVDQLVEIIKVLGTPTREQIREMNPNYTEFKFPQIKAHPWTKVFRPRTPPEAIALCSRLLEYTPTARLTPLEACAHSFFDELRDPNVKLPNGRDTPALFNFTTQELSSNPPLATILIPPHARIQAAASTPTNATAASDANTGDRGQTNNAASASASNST
Sequence of GLUC[…]. (P04150 whole entry): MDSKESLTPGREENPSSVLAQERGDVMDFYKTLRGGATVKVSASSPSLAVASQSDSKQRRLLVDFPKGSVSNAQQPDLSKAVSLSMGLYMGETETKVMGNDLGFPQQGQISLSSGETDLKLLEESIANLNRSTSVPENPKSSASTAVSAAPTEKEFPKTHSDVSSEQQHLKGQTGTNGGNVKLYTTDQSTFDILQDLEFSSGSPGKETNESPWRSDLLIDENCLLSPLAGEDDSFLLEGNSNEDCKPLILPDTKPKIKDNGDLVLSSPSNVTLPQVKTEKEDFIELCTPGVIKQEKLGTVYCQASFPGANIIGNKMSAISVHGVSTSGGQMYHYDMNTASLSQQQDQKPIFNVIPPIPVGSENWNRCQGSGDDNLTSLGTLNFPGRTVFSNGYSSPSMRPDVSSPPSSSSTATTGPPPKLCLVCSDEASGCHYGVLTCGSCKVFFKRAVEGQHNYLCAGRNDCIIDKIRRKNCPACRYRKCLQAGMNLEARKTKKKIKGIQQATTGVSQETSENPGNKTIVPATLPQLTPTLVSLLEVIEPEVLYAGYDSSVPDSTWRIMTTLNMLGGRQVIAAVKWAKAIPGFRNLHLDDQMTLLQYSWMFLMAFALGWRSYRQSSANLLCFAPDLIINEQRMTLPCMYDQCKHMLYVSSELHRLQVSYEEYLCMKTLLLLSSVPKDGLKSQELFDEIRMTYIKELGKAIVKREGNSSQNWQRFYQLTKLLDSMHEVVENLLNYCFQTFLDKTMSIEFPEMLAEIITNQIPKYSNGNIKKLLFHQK
Sequence of A[…]. ENZ. (P12821 30-1306): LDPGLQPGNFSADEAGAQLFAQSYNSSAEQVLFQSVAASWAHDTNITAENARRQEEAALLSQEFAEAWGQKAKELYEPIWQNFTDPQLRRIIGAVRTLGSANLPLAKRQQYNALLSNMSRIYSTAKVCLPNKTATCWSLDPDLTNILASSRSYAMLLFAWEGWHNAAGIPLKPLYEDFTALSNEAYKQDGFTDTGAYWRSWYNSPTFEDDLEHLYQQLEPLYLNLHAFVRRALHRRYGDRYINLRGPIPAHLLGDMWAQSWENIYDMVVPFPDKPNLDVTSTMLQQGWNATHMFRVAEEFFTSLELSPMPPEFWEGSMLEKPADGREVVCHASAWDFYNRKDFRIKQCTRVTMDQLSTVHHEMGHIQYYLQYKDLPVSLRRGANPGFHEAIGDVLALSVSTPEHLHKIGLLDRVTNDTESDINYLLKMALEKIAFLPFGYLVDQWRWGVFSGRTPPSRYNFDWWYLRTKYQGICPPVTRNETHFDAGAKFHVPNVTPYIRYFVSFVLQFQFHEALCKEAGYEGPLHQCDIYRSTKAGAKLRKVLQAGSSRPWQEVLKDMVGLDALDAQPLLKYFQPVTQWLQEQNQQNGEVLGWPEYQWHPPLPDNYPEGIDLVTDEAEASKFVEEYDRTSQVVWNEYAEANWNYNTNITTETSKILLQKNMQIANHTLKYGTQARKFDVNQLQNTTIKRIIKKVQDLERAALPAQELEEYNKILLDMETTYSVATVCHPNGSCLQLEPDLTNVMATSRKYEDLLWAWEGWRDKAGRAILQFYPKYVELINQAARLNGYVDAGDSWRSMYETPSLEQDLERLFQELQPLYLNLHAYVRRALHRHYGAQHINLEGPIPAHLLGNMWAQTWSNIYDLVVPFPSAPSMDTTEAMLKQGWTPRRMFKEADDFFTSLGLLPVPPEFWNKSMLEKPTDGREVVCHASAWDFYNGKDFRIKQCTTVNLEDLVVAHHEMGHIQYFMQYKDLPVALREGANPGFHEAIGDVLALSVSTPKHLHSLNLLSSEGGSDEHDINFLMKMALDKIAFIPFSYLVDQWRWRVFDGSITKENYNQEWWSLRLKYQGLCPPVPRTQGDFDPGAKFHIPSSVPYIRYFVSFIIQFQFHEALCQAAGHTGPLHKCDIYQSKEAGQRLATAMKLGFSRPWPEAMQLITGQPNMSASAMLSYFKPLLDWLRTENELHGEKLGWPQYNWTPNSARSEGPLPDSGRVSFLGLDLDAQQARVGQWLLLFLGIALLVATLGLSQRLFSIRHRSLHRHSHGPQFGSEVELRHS
Sequence of UniProt P32238 (P32238 whole entry): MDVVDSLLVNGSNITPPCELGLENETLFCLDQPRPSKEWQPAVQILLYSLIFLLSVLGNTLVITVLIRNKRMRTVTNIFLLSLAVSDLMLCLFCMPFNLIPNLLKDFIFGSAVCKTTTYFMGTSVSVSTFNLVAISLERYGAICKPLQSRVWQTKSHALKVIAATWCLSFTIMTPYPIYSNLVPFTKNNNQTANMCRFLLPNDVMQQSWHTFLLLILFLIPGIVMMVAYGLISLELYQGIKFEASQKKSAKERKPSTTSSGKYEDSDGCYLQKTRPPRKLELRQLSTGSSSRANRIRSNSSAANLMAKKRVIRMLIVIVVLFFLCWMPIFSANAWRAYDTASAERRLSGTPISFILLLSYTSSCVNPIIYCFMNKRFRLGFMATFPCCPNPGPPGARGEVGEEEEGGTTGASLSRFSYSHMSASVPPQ
Sequence of ANGIOTENSIN II REC. 1 (P30556 whole entry): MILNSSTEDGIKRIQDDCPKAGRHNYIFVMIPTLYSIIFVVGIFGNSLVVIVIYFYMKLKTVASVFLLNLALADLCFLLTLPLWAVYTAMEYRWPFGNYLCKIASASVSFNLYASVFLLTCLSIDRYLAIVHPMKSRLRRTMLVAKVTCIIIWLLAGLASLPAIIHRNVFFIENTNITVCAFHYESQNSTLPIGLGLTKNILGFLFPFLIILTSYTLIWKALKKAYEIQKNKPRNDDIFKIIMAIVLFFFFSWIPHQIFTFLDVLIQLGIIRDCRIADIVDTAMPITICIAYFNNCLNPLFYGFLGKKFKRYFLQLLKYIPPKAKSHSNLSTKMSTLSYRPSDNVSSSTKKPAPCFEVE
Sequence of ADENOSINE A3 REC. (P0DMS8 whole entry): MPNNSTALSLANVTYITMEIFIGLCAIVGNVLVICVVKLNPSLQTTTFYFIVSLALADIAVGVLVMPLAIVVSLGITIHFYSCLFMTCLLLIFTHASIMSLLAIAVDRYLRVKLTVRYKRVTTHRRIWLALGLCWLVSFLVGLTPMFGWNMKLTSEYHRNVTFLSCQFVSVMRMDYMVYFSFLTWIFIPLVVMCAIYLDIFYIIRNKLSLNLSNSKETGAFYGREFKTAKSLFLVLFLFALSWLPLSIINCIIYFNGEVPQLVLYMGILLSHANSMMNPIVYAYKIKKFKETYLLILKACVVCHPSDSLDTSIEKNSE

O=C(c1ccc2nc(-c3cnccc3C3(C4CCC4)CC3)oc2c1)N1CCN(c2nc3nc(Cl)ccc3o2)CC1 [Compound 27]
A[…]. ENZ. percent activity or inhibition compared to the assay reference (A[…]. ENZ.): -12%
ACETYLCHOLINESTERASE percent activity or inhibition compared to the assay reference (ACETYLCHOLINESTERASE): -4%
[…]. M1 percent activity or inhibition compared to the assay reference ([…]. M1): 52%
DOPAMINE D2 REC. (short) percent activity or inhibition compared to the assay reference (DOPAMINE D2 REC. (short)): 13%
ADENOSINE A1 REC. percent activity or inhibition compared to the assay reference (ADENOSINE A1 REC.): 13%
GSK-3A percent activity or inhibition compared to the assay reference (GSK-3A): 30%
5HT1A percent activity or inhibition compared to the assay reference (5HT1A): 28%
PHOSPHODIESTERASE 3B percent activity or inhibition compared to the assay reference (PHOSPHODIESTERASE 3B): 1%
α2A-ADRENOCEPTOR percent activity or inhibition compared to the assay reference (α2A-ADRENOCEPTOR): 0%
CDK2 percent activity or inhibition compared to the assay reference (CDK2): 0%
κ OPIOID REC. percent activity or inhibition compared to the assay reference (κ OPIOID REC.): 48%
HISTAMINE H2 REC. percent activity or inhibition compared to the assay reference (HISTAMINE H2 REC.): -4%
5HT2A percent activity or inhibition compared to the assay reference (5HT2A): 12%
selectivity toward MAGL over off-targets and closely related brain hydrolases [1]: high selectivity
Lipophilic efficiency (LipE) (human MAGL): 3.72
C[…]. CB1 percent activity or inhibition compared to the assay reference (C[…]. CB1): 18%
PHOSPHODIESTERASE 4D2 percent activity or inhibition compared to the assay reference (PHOSPHODIESTERASE 4D2): -7%
CHOLECYSTOKININ 1 REC. percent activity or inhibition compared to the assay reference (CHOLECYSTOKININ 1 REC.): 4%
HIV-1 PROTEASE percent activity or inhibition compared to the assay reference (HIV-1 PROTEASE): 34%
ESTROGEN REC. α percent activity or inhibition compared to the assay reference (ESTROGEN REC. α): -20%
5HT3 percent activity or inhibition compared to the assay reference (5HT3): -3%
[…]. M2 percent activity or inhibition compared to the assay reference ([…]. M2): 76%
μ OPIOID REC. percent activity or inhibition compared to the assay reference (μ OPIOID REC.): 16%
DOPAMINE D1 REC. percent activity or inhibition compared to the assay reference (DOPAMINE D1 REC.): -2%
α1A-ADRENOCEPTOR percent activity or inhibition compared to the assay reference (α1A-ADRENOCEPTOR): 5%
GSK-3B percent activity or inhibition compared to the assay reference (GSK-3B): -8%
GLUC[…]. percent activity or inhibition compared to the assay reference (GLUC[…].): 5%
ANDROGEN REC. percent activity or inhibition compared to the assay reference (ANDROGEN REC.): -6%
SEROTONIN TRANSPORTER percent activity or inhibition compared to the assay reference (SEROTONIN TRANSPORTER): 1%
ABL1 percent activity or inhibition compared to the assay reference (ABL1): -3%
ZAP70 percent activity or inhibition compared to the assay reference (ZAP70): -15%
HISTAMINE H1 REC. percent activity or inhibition compared to the assay reference (HISTAMINE H1 REC.): 48%
CYCLO OXYGENASE 2 percent activity or inhibition compared to the assay reference (CYCLO OXYGENASE 2): 6%
ADENOSINE A3 REC. percent activity or inhibition compared to the assay reference (ADENOSINE A3 REC.): 7%
ANGIOTENSIN II REC. 1 percent activity or inhibition compared to the assay reference (ANGIOTENSIN II REC. 1): -1%
PPARγ percent activity or inhibition compared to the assay reference (PPARγ): 9%
5HT2B percent activity or inhibition compared to the assay reference (5HT2B): 10%
